{
  "source": "paper PMC10439310",
  "about": "(Nature microbiology, 2022)",
  "tested_on": "inosine-5’-monophosphate dehydrogenase (IMPDH, gene: guaB)",
  "type": "binding, Bacillus anthracis",
  "conditions": "[32P]-Ap4A, lysates of E. coli overexpressing B. anthracis ORFs",
  "data": [
    {"smiles": "Nc1ncnc2c1ncn2[C@@H]1O[C@H](COP(=O)(O)OP(=O)(O)OP(=O)(O)OP(=O)(O)OC[C@H]2O[C@@H](n3cnc4c(N)ncnc43)[C@H](O)[C@@H]2O)[C@@H](O)[C@H]1O", "note": "[Ap4A, diadenosine 5’,5’’’-P1,P4-tetraphosphate]", "values": [
      {"measurement": "binding in DRaCALA screen (in words)", "result": "putative Ap4A-binding partner"}
    ]}
  ]
}
